pIC50: −log10 of the molar value. Values after ≈ are worked out from the molar mass of the structure shown. Like-named read-outs stand apart in the source and are kept apart here.
Legend:
[1] = target: T1, purified recombinant HIV-1 reverse transcriptase (Human immunodeficiency virus type 1 group M subtype B, UniProt P04585); assay: reverse transcriptase inhibition, poly(rA)/(dT) template primer, [3H]dTTP uptake; type: biochemical
T1 construct: purified recombinant HIV-1 reverse transcriptase; made in house; host or cells: Escherichia coli
How it was run: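 Inhibition reported as percent reduction of [3H]dTTP incorporation relative to solvent control, after 1 h at 37 °C at pH 8.3. Recombinant RT from E. coli, poly(rA) template with oligo(dT) primer, 4 μM unlabeled dTTP as substrate; product collected on DEAE filter mats.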

[2] = cytotoxicity in MT-4 cells (MTT, culture medium in place of HIV); type: cell-based; details: human
How it was run: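 MT-4 cells (3.5×10^4 per well) exposed to diluted compound with culture medium added instead of HIV, 5 days at 37° C in CO2. MTT added for 1 h, formazan dissolved in Triton X-100/acidified isopropanol. OD read at 560 nm (690 nm reference) and compared with control.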

HIV (HTLV-IIIB strain) = assay: microbe, parasite or virus in culture; type: cell-based; details: Human immunodeficiency virus 1, IIIB, MT4, 120 h
How it was run: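 MT-4 cells (3.5×10^4 per well) were infected with HIV at 60 pfu per well in the presence of diluted compound and incubated for 5 days at 37° C. Surviving cells were then measured by MTT reduction, with the formazan dissolved in acidified isopropanol containing Triton X-100.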

[3] = MT-4 cells, no virus, 37° C., 5 days, MTT, Table 3, read-out: CC50
[4] = MT-4 cells, 60 pfu HIV per well, 37° C., 5 days, MTT, Tables 1 and 2, read-out: EC50

SMILES	pIC50 [1]	CC50 at 120 h [2, 3] [µg/mL]	EC50 (HIV (HTLV-IIIB strain); [4]) [µg/mL]	EC50 (HIV (HTLV-IIIB strain)) [µg/mL]	CC50 at 120 h ([2]; mt-4 cells) [µg/mL]
CC(C)c1nc(CO)n(Cc2ccccc2)c1Sc1cc(Cl)cc(Cl)c1 [Compound I-16, [1-benzyl-5-(3,5-dichlorophenylthio)-4-isopropyl-1H-imidazol-2-yl]methanol]	5.43	12.5 to 25 (≈ 30.7 to 61.4 µM)	0.008 to 0.016 (≈ 0.0196 to 0.0393 µM)	–	–
C=CCn1c(CO)nc(C(C)C)c1Sc1cccc(Cl)c1 [Compound I-17, [1-allyl-5-(3-chlorophenylthio)-4-isopropyl-1H-imidazol-2-yl]methanol]	> 5.61	6.3 to 12.5 (≈ 19.5 to 38.7 µM)	0.005 to 0.01 (≈ 0.0155 to 0.031 µM)	–	–
C=CCn1c(CO)nc(C(C)C)c1Sc1cc(Cl)cc(Cl)c1 [Compound I-19, [1-allyl-5-(3,5-dichlorophenylthio)-4-isopropyl-1H-imidazol-2-yl]methanol]	5.70	10 to 100 (≈ 28 to 280 µM)	–	0.004 to 0.008 (≈ 0.0112 to 0.0224 µM)	–
CC(C)c1nc(CO)n(Cc2ccccc2)c1Sc1cccc(Cl)c1 [Compound I-20, [1-benzyl-5-(3-chlorophenylthio)-4-isopropyl-1H-imidazol-2-yl]methanol]	5.25	6.3 to 12.5 (≈ 16.9 to 33.5 µM)	0.008 (≈ 0.0215 µM)	–	–
CC(C)c1nc(CO)n(Cc2ccccc2)c1Sc1cccc([N+](=O)[O-])c1 [Compound I-21, [1-benzyl-4-isopropyl-5-(3-nitrophenylthio)-1H-imidazol-2-yl]methanol]	5.12	6.3 to 12.5 (≈ 16.4 to 32.6 µM)	0.008 (≈ 0.0209 µM)	–	–
C=CCn1c(CO)nc(C(C)C)c1Sc1cccc([N+](=O)[O-])c1 [Compound I-22, [1-allyl-4-isopropyl-5-(3-nitrophenylthio)-1H-imidazol-2-yl]methanol]	5.77	25 (≈ 75 µM)	–	0.002 (≈ 0.006 µM)	–
CCn1c(CO)nc(C(C)C)c1Sc1cccc([N+](=O)[O-])c1 [Compound I-23, [1-ethyl-4-isopropyl-5-(3-nitrophenylthio)-1H-imidazol-2-yl]methanol]	6.00	25 (≈ 77.8 µM)	0.004 (≈ 0.0124 µM)	–	–
CCCn1c(CO)nc(C(C)C)c1Sc1cccc([N+](=O)[O-])c1 [Compound I-24, [4-isopropyl-5-(3-nitrophenylthio)-1-n-propyl-1H-imidazol-2-yl]methanol]	5.53	25 (≈ 74.5 µM)	0.008 (≈ 0.0239 µM)	–	–
CCn1c(CO)nc(C(C)C)c1Sc1cc(Cl)cc(Cl)c1 [Compound I-25, 2-[5-(3,5-dichlorophenylthio)-1-ethyl-4-isopropyl-1H-imidazol-2-yl]methanol]	5.86	10 to 100 (≈ 29 to 290 µM)	0.004 (≈ 0.0116 µM)	–	–
CCCn1c(CO)nc(C(C)C)c1Sc1cc(Cl)cc(Cl)c1 [Compound I-26, [5-(3,5-dichlorophenylthio)-4-isopropyl-1-n-propyl-1H-imidazol-2-yl]methanol]	5.60	10 to 100 (≈ 27.8 to 278 µM)	–	0.004 to 0.008 (≈ 0.0111 to 0.0223 µM)	–
CC(C)c1nc(CO)n(C(C)C)c1Sc1cc(Cl)cc(Cl)c1 [Compound I-27, [5-(3,5-dichlorophenylthio)-1,4-diisopropyl-1H-imidazol-2-yl]methanol]	5.48	10 to 100 (≈ 27.8 to 278 µM)	0.03 (≈ 0.0835 µM)	–	–
CCn1c(CO)nc(C(C)C)c1Sc1cccc(Cl)c1 [Compound I-28, [1-ethyl-5-(3-chlorophenylthio)-4-isopropyl-1H-imidazol-2-yl]methanol]	6.19	12.5 (≈ 40.2 µM)	0.002 to 0.004 (≈ 0.00643 to 0.0129 µM)	–	–
CCCn1c(CO)nc(C(C)C)c1Sc1cccc(Cl)c1 [Compound I-29, [5-(3-chlorophenylthio)-4-isopropyl-1-n-propyl-1H-imidazol-2-yl]methanol]	5.73	12.5 (≈ 38.5 µM)	0.016 to 0.03 (≈ 0.0492 to 0.0923 µM)	–	–
CC(C)c1nc(CO)n(CC2CC2)c1Sc1cc(Cl)cc(Cl)c1 [Compound I-30, [1-cyclopropylmethyl-5-(3,5-dichlorophenylthio)-4-isopropyl-1H-imidazol-2-yl]methanol]	5.61	10 to 100 (≈ 26.9 to 269 µM)	0.005 to 0.01 (≈ 0.0135 to 0.0269 µM)	–	–
CC(=O)Cn1c(CO)nc(C(C)C)c1Sc1cc(Cl)cc(Cl)c1 [Compound I-32]	5.14	10 to 100 (≈ 26.8 to 268 µM)	0.06 (≈ 0.161 µM)	–	–
CC(C)c1nc(CO)n(CC(F)(F)F)c1Sc1cc(Cl)cc(Cl)c1 [Compound I-33, 2-[5-(3,5-dichlorophenylthio)-4-isopropyl-1-(1,1,1-trifluoroethyl)-1H-imidazol-2-yl]methanol]	5.01	10 to 100 (≈ 25 to 250 µM)	0.016 (≈ 0.0401 µM)	–	–
CC(C)c1nc(CO)n(CF)c1Sc1cc(Cl)cc(Cl)c1 [Compound I-34, [1-fluoromethyl-5-(3,5-dichlorophenylthio)-4-isopropyl-1H-imidazol-2-yl]methanol]	5.40	–	0.006 (≈ 0.0172 µM)	–	13.5 (≈ 38.7 µM)

SMILES	pIC50 [1]	CC50 at 120 h [2, 3] [µg/mL]	EC50 (HIV (HTLV-IIIB strain); [4]) [µg/mL]	EC50 (HIV (HTLV-IIIB strain)) [µg/mL]	CC50 at 120 h ([2]; mt-4 cells) [µg/mL]
CCn1c(CO)nc(C(C)C)c1Sc1cc(F)cc(F)c1 [Compound I-36, [5-(3,5-difluorophenylthio)-1-ethyl-4-isopropyl-1H-imidazol-2-yl]methanol]	6.24	10 to 100 (≈ 32 to 320 µM)	–	0.002 (≈ 0.0064 µM)	–
CCn1c(CO)nc(C(C)C)c1Sc1cccc(F)c1 [Compound I-37, [1-ethyl-5-(3-fluorophenylthio)-4-isopropyl-1H-imidazol-2-yl]methanol]	6.69	25 (≈ 84.9 µM)	0.0005 (≈ 0.0017 µM)	–	–
CC(C)c1c(Sc2cccc(Cl)c2)nc(CO)n1C [Compound I-38, [4-(3-chlorophenylthio)-5-isopropyl-1-methyl-1H-imidazol-2-yl]methanol]	3.56	12.5 to 25 (≈ 42.1 to 84.2 µM)	6.3 (≈ 21.2 µM)	–	–
CC(C)c1c(Sc2cc(Cl)cc(Cl)c2)nc(CO)n1C [Compound I-39, [4-(3,5-dichlorophenylthio)-5-isopropyl-1-methyl-1H-imidazol-2-yl]methanol]	3.70	10 to 100 (≈ 30.2 to 302 µM)	1 to 10 (≈ 3.02 to 30.2 µM)	–	–
CC(=O)OCc1nc(C(C)C)c(Sc2cc(Cl)cc(Cl)c2)n1C [Compound I-40, [5-(3,5-dichlorophenylthio)-4-isopropyl-1-methyl-1H-imidazol-2-yl]methyl acetate]	4.54	12.5 to 25	0.016	–	–
CC(C)c1nc(COC(N)=O)n(C)c1Sc1cc(Cl)cc(Cl)c1 [Compound I-41, 2-carbamoyloxymethyl-5-(3,5-dichlorophenylthio)-4-isopropyl-1-methyl-1H-imidazole]	5.87	–	–	0.016 (≈ 0.0427 µM)	8.5 (≈ 22.7 µM)
CC(C)c1nc(COC(N)=O)n(C)c1Sc1cccc(Cl)c1 [Compound I-42, 2-carbamoyloxymethyl-5-(3-chlorophenylthio)-4-isopropyl-1-methyl-1H-imidazole]	5.30	–	–	0.07 (≈ 0.206 µM)	8 (≈ 23.5 µM)
CNC(=O)OCc1nc(C(C)C)c(Sc2cc(Cl)cc(Cl)c2)n1C [Compound I-43, 5-(3,5-dichlorophenylthio)-4-isopropyl-1-methyl-2-(N-methylcarbamoyl)oxymethyl-1H-imidazole]	4.86	1 to 10 (≈ 2.58 to 25.8 µM)	0.25 (≈ 0.644 µM)	–	–
CNC(=S)OCc1nc(C(C)C)c(Sc2cc(Cl)cc(Cl)c2)n1C [Compound I-44, 5-(3,5-dichlorophenylthio)-4-isopropyl-1-methyl-2-(N-methylthiocarbamoyl)oxymethyl-1H-imidazole]	3.97	1 to 10 (≈ 2.47 to 24.7 µM)	1 (≈ 2.47 µM)	–	–
CC(C)c1nc(COC(N)=O)n(Cc2ccccc2)c1Sc1cc(Cl)cc(Cl)c1 [Compound I-45, 1-benzyl-2-carbamoyloxymethyl-5-(3,5-dichlorophenylthio)-4-isopropyl-1H-imidazole]	5.84	12.5 (≈ 27.8 µM)	–	0.004 to 0.008 (≈ 0.00888 to 0.0178 µM)	–
CC(C)c1nc(COC(N)=O)n(Cc2ccccc2)c1Sc1cccc([N+](=O)[O-])c1 [Compound I-47, 1-benzyl-2-carbamoyloxymethyl-4-isopropyl-5-(3-nitrophenylthio)-1H-imidazole]	5.64	6.3 to 12.5 (≈ 14.8 to 29.3 µM)	–	0.002 (≈ 0.00469 µM)	–
C=CCn1c(COC(N)=O)nc(C(C)C)c1Sc1cccc([N+](=O)[O-])c1 [Compound I-48, 1-allyl-2-carbamoyloxymethyl-4-isopropyl-5-(3-nitrophenylthio)-1H-imidazole]	5.92	25 to 50 (≈ 66.4 to 133 µM)	0.016 (≈ 0.0425 µM)	–	–
CCCn1c(COC(N)=O)nc(C(C)C)c1Sc1cc(Cl)cc(Cl)c1 [Compound I-51, 2-carbamoyloxymethyl-5-(3,5-dichlorophenylthio)-4-isopropyl-1-n-propyl-1H-imidazole]	6.02	6.3 to 12.5 (≈ 15.7 to 31.1 µM)	0.003 to 0.005 (≈ 0.00746 to 0.0124 µM)	–	–
CCn1c(COC(N)=O)nc(C(C)C)c1Sc1cc(Cl)cc(Cl)c1 [Compound I-52, 2-carbamoyloxymethyl-5-(3,5-dichlorophenylthio)-1-ethyl-4-isopropyl-1H-imidazole]	6.33	10 (≈ 25.8 µM)	–	0.003 (≈ 0.00773 µM)	–
CCn1c(COC(N)=O)nc(C(C)C)c1Sc1cccc(Cl)c1 [Compound I-53, 2-carbamoyloxymethyl-5-(3-chlorophenylthio)-1-ethyl-4-isopropyl-1H-imidazole]	6.23	10 to 100 (≈ 28.3 to 283 µM)	–	0.004 to 0.008 (≈ 0.0113 to 0.0226 µM)	–
CCCn1c(COC(N)=O)nc(C(C)C)c1Sc1cccc(Cl)c1 [Compound I-54, 2-carbamoyloxymethyl-5-(3-chlorophenylthio)-4-isopropyl-1-n-propyl-1H-imidazole]	5.90	12.5 (≈ 34 µM)	–	0.004 (≈ 0.0109 µM)	–

Reference: patent US6147097A, “Imidazole derivatives as anti-HIV agents” (Shionogi & Co., Ltd., priority 1994, dated 2000)
